Experimental findings from the supplement of paper PMC10307832 are described below.

Assay in all cases: relative viability (nuclei count vs DMSO), 5 days (fraction); higher = more cells survive
Compound in assay [1]: Cn1c(=O)n(-c2ccc(C(C)(C)C#N)cc2)c2c3cc(-c4cnc5ccccc5c4)ccc3ncc21 [Dactolisib] + Cc1cc(Nc2cc(N3CCN(C)CC3)nc(Sc3ccc(NC(=O)C4CC4)cc3)n2)n[nH]1 [Tozasertib] (partner 0.1 µM)
The essentials: (§1)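 Five library-drug doses in √10 steps were combined with a fixed anchor-drug dose, or a single drug was given alone, by pin tool to lung cancer cell lines in 1536-well plates the day after seeding. Nuclei were stained and counted after 5 days. Relative viability is the nuclei count in treated wells over that in vehicle wells, taken as the median of duplicate plates.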

Compound in assay [2]: Cn1c(=O)n(-c2ccc(C(C)(C)C#N)cc2)c2c3cc(-c4cnc5ccccc5c4)ccc3ncc21 [Dactolisib] + CC(C)C[C@H](NC(=O)[C@H](Cc1ccccc1)NC(=O)c1cnccn1)B(O)O [Bortezomib] (partner 0.002 µM)
In a few lines: as §1

Compound in assay [3]: Cn1c(=O)n(-c2ccc(C(C)(C)C#N)cc2)c2c3cc(-c4cnc5ccccc5c4)ccc3ncc21 [Dactolisib] + Nc1nc2[nH]cc(CCc3ccc(C(=O)N[C@@H](CCC(=O)O)C(=O)O)cc3)c2c(=O)[nH]1 [Pemetrexed] (partner 0.2 µM)
The essentials:
as §1

Compound in assay [4]: C1CCC(CC1)N(CCNCCC2=C3C(=C(C=C2)O)NC(=O)CO3)C(=O)CCNCCC4=CC(=C(C=C4)Cl)Cl [AZ505] + Cc1nc(Nc2ncc(C(=O)Nc3c(C)cccc3Cl)s2)cc(N2CCN(CCO)CC2)n1 [Dasatinib] (partner 0.075 µM)
The essentials: as §1

With NCI-H2405, the relative viability in assay [1] (first compound 0.002 µM) stood at 0.79; in assay [1] (first compound 0.006325 µM) it was 0.826; in assay [1] (first compound 0.02 µM), 0.85; in assay [1] (first compound 0.06325 µM) it was 0.527; in assay [1] (first compound 0.2 µM) it was 0.44; in assay [2] (first compound 0.002 µM) it was 1. Also, the relative viability in assay [2] (first compound 0.006325 µM) amounted to 0.97; in assay [2] (first compound 0.02 µM) it was 0.96; in assay [2] (first compound 0.06325 µM) it was 0.892; in assay [2] (first compound 0.2 µM), 0.628; in assay [3] (first compound 0.002 µM) it was 1.1; in assay [3] (first compound 0.006325 µM), 1.03. Moreover, the relative viability was 0.972 in assay [3] (first compound 0.02 µM); 0.641 in assay [3] (first compound 0.06325 µM); 0.378 in assay [3] (first compound 0.2 µM); 0.187 in assay [4] (first compound 0.08 µM); 0.151 in assay [4] (first compound 0.253 µM); 0.133 in assay [4] (first compound 0.8 µM). For the same cell line, the relative viability worked out at 0.203 in assay [4] (first compound 2.53 µM) and 0.176 in assay [4] (first compound 8 µM).

With NCI-H3122, the relative viability in assay [1] (first compound 0.002 µM) is 0.427; in assay [1] (first compound 0.006325 µM), 0.361; in assay [1] (first compound 0.02 µM) it was 0.425; in assay [1] (first compound 0.06325 µM), 0.352; in assay [1] (first compound 0.2 µM), 0.16; in assay [2] (first compound 0.002 µM), 1. For the same cell line, the relative viability turned out to be 0.987 in assay [2] (first compound 0.006325 µM); 1.11 in assay [2] (first compound 0.02 µM); 1.09 in assay [2] (first compound 0.06325 µM); 0.927 in assay [2] (first compound 0.2 µM); 0.171 in assay [3] (first compound 0.002 µM); 0.189 in assay [3] (first compound 0.006325 µM). Further, the relative viability in assay [3] (first compound 0.02 µM) is 0.203; in assay [3] (first compound 0.06325 µM), 0.192; in assay [3] (first compound 0.2 µM), 0.211; in assay [4] (first compound 0.08 µM), 0.729; in assay [4] (first compound 0.253 µM), 0.829; in assay [4] (first compound 0.8 µM) it was 0.806. Further, the relative viability in assay [4] (first compound 2.53 µM) came out at 0.661; in assay [4] (first compound 8 µM) it was 0.899.

Take PC-3 [JPC-3]: the relative viability amounted to 0.967 in assay [1] (first compound 0.002 µM); 0.896 in assay [1] (first compound 0.006325 µM); 0.803 in assay [1] (first compound 0.02 µM); 0.831 in assay [1] (first compound 0.06325 µM); 0.608 in assay [1] (first compound 0.2 µM); 0.847 in assay [2] (first compound 0.002 µM). In addition, the relative viability stood at 0.842 in assay [2] (first compound 0.006325 µM); 0.802 in assay [2] (first compound 0.02 µM); 0.902 in assay [2] (first compound 0.06325 µM); 0.869 in assay [2] (first compound 0.2 µM); 1.35 in assay [3] (first compound 0.002 µM); 1.11 in assay [3] (first compound 0.006325 µM). For the same cell line, the relative viability in assay [3] (first compound 0.02 µM) amounted to 1; in assay [3] (first compound 0.06325 µM), 1.26; in assay [3] (first compound 0.2 µM) it was 0.555; in assay [4] (first compound 0.08 µM), 0.848; in assay [4] (first compound 0.253 µM), 0.968; in assay [4] (first compound 0.8 µM) it was 0.864. Besides, the relative viability was 0.937 in assay [4] (first compound 2.53 µM) and 0.858 in assay [4] (first compound 8 µM).

As for PC-14, the relative viability in assay [1] (first compound 0.002 µM) is 0.576; in assay [1] (first compound 0.006325 µM), 0.679; in assay [1] (first compound 0.02 µM), 0.629; in assay [1] (first compound 0.06325 µM), 0.215; in assay [1] (first compound 0.2 µM) it was 0.125; in assay [2] (first compound 0.002 µM) it was 0.904. The relative viability in assay [2] (first compound 0.006325 µM) was determined as 0.779; in assay [2] (first compound 0.02 µM) it was 0.905; in assay [2] (first compound 0.06325 µM), 0.559; in assay [2] (first compound 0.2 µM) it was 0.416; in assay [3] (first compound 0.002 µM), 0.0904; in assay [3] (first compound 0.006325 µM) it was 0.129. Further, the relative viability in assay [3] (first compound 0.02 µM) is 0.192; in assay [3] (first compound 0.06325 µM), 0.197; in assay [3] (first compound 0.2 µM), 0.145; in assay [4] (first compound 0.08 µM), 0.219; in assay [4] (first compound 0.253 µM), 0.241; in assay [4] (first compound 0.8 µM), 0.296. Moreover, the relative viability in assay [4] (first compound 2.53 µM) came to 0.264; in assay [4] (first compound 8 µM), 0.227.

Consider RERF-LC-KJ, for which the relative viability in assay [1] (first compound 0.002 µM) came to 0.535; in assay [1] (first compound 0.006325 µM), 0.551; in assay [1] (first compound 0.02 µM), 0.599; in assay [1] (first compound 0.06325 µM), 0.279; in assay [1] (first compound 0.2 µM) it was 0.397; in assay [2] (first compound 0.002 µM), 1.17. Further, the relative viability worked out at 0.978 in assay [2] (first compound 0.006325 µM); 1.01 in assay [2] (first compound 0.02 µM); 0.641 in assay [2] (first compound 0.06325 µM); 0.574 in assay [2] (first compound 0.2 µM); 0.488 in assay [3] (first compound 0.002 µM); 0.479 in assay [3] (first compound 0.006325 µM). Besides, the relative viability is 0.46 in assay [3] (first compound 0.02 µM); 0.433 in assay [3] (first compound 0.06325 µM); 0.434 in assay [3] (first compound 0.2 µM); 0.72 in assay [4] (first compound 0.08 µM); 0.772 in assay [4] (first compound 0.253 µM); 0.763 in assay [4] (first compound 0.8 µM). Further, the figures for the relative viability in assay [4] (first compound 2.53 µM) and in assay [4] (first compound 8 µM) were 0.743 and 0.752, respectively.

Turning to SK-LU-1, the relative viability in assay [1] (first compound 0.002 µM) was 0.324; in assay [1] (first compound 0.006325 µM), 0.307; in assay [1] (first compound 0.02 µM), 0.302; in assay [1] (first compound 0.06325 µM), 0.245; in assay [1] (first compound 0.2 µM), 0.176; in assay [2] (first compound 0.006325 µM) it was 1.05. The relative viability is 1.21 in assay [2] (first compound 0.02 µM); 1.16 in assay [2] (first compound 0.06325 µM); 0.457 in assay [2] (first compound 0.2 µM); 0.944 in assay [3] (first compound 0.002 µM); 0.913 in assay [3] (first compound 0.006325 µM); 0.874 in assay [3] (first compound 0.02 µM). Besides, the relative viability in assay [3] (first compound 0.06325 µM) is 0.747; in assay [3] (first compound 0.2 µM) it was 0.439; in assay [4] (first compound 0.08 µM) it was 0.182; in assay [4] (first compound 0.253 µM), 0.168; in assay [4] (first compound 0.8 µM) it was 0.163; in assay [4] (first compound 2.53 µM) it was 0.161. In assay [4] (first compound 8 µM), the relative viability was 0.16.

SW 1573: the relative viability amounted to 0.153 in assay [1] (first compound 0.002 µM); 0.2 in assay [1] (first compound 0.006325 µM); 0.232 in assay [1] (first compound 0.02 µM); 0.154 in assay [1] (first compound 0.06325 µM); 0.0965 in assay [1] (first compound 0.2 µM); 1.18 in assay [2] (first compound 0.002 µM). Also, the relative viability was 0.847 in assay [2] (first compound 0.006325 µM); 0.771 in assay [2] (first compound 0.02 µM); 0.331 in assay [2] (first compound 0.06325 µM); 0.373 in assay [2] (first compound 0.2 µM); 0.696 in assay [3] (first compound 0.002 µM); 0.768 in assay [3] (first compound 0.006325 µM). For the same cell line, the relative viability in assay [3] (first compound 0.02 µM) worked out at 0.584; in assay [3] (first compound 0.06325 µM), 0.284; in assay [3] (first compound 0.2 µM), 0.203; in assay [4] (first compound 0.08 µM), 0.476; in assay [4] (first compound 0.253 µM) it was 0.605; in assay [4] (first compound 0.8 µM), 0.414. Also, the relative viability in assay [4] (first compound 2.53 µM) stood at 0.594; in assay [4] (first compound 8 µM), 0.426.
